Measured values taken from patent publication US20230116703A1, “NOVEL ERGOLINES AND METHODS OF TREATING MOOD DISORDERS” (priority 2021, published 2023).
pEC50: −log10 of the molar value. Where two headings read alike, the source gives them in different places.

Tests used:
[1] = Metabolic stability in human liver microsomes (HLM); type: in vitro ADME; details: for t1/2: 1 μM, 0.50 mg protein per mL; for microsomal CLint at 1 μM: both sexes, human, pooled human liver microsomes, pH 7.4, 0.50 mg protein per mL
Source text: HLM Stability. Pooled HLM from adult male and female donors (Corning 452117) were used.

[2] = molecular target: T1, 5-HT2A receptor (Homo sapiens, UniProt P28223); assay: cell-based; type: cell-based; details: Ca^2+ flux, agonist; read-out: 5-HT2A EC50
T1 construct: host or cells: HEK293

[3] = Metabolic stability in rat liver microsomes (RLM); details: for t1/2: RLM, 0.50 mg protein per mL; for microsomal CLint at 1 μM: both, rat, pooled rat liver microsomes, pH 7.4
[4] = molecular target: T2, 5-HT2B receptor (Homo sapiens, UniProt P41595); assay: cell-based; details: Ca^2+ flux, agonist; read-out: 5-HT2B EC50
T2 construct: host or cells: HEK293

[5] = molecular target: T3, 5-HT1A receptor (Homo sapiens, UniProt P08908); assay: cell-based
T3 construct: host or cells: CHO cells
T3 sequence (P08908 1-422): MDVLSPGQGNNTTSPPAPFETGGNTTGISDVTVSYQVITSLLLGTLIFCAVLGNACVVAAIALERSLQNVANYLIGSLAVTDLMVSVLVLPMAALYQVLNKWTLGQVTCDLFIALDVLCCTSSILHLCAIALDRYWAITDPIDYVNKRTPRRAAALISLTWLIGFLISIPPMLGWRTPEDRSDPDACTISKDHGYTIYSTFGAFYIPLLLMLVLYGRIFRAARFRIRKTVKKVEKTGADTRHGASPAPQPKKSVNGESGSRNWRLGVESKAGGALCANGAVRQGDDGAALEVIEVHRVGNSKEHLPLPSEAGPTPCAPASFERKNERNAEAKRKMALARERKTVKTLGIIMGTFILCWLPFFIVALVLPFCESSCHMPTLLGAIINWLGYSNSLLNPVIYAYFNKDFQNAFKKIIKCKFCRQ

[6] = molecular target: T1, 5-HT2A receptor; assay: PathHunter beta-arrestin recruitment assay at 5-HT2A; type: cell-based
Method: The degree of arrestin bias varied substantially across the other compounds tested as well.
Arrestin Functional Assay at 5-HT2A. Recruitment of beta-arrestin was determined using a PathHunter assay at Eurofins DiscoverX (Fremont, Calif.) according to their standard protocols. PathHunter GPCR beta-arrestin assays take advantage of DiscoverX's proprietary Enzyme Fragment Complementation technology. The GPCR is fused in frame with a small enzyme donor fragment ProLink™ (PK) and co-expressed in cells stably expressing a fusion protein of beta-arrestin and the larger, N-terminal deletion mutant of beta-galactosidase. Activation of the GPCR (5-HT2A receptor in this case) stimulates binding of beta-arrestin to the PK-tagged GPCR and forces complementation of the two enzyme fragments, resulting in the formation of an active beta-galactosidase enzyme. This interaction leads to an increase in enzyme activity that can be measured using chemiluminescent PathHunter Detection Reagents. Briefly, PathHunter cells expressing 5-HT2A receptors were seeded in a volume of 20 μL into 384-well plates and incubated at 37° C. for the appropriate time prior to testing. […] Plates were then imaged on a microplate reader and the agonist activity was calculated using the following formula: % Activity=100%×(mean RLU of test sample−mean RLU of vehicle control)/(mean MAX control ligand−mean RLU of vehicle control), where RLU=relative light units.

[7] = molecular target: T1, 5-HT2A receptor; assay: biochemical; type: binding; details: 1 nM [^3H]ketanserin, HEK293 stable cell line; read-out: 5-HT2A Receptor Ki (nM) ([^3H]ketanserin)
In short: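 Test compounds competed with [^3H]ketanserin for receptor binding, and affinity was derived from the radioligand displacement.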

[8] = molecular target: T4, human 5-HT2C receptor (Homo sapiens, UniProt P28335); assay: cell-based; details: Ca^2+ flux, agonist
T4 sequence (P28335 33-458): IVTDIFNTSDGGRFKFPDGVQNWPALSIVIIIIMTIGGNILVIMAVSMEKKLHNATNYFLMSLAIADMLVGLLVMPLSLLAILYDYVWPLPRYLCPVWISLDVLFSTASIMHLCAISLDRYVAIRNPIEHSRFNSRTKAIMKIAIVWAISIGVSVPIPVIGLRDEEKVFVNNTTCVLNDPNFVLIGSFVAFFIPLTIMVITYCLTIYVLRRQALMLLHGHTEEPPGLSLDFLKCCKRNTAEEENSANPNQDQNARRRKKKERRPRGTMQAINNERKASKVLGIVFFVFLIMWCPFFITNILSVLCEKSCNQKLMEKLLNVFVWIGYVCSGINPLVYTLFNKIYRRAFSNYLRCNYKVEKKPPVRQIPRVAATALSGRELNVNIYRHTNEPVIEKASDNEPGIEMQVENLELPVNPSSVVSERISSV

[9] = Metabolic stability in mouse liver microsomes (MLM); type: in vitro ADME; details: 0.50 mg protein per mL; for t1/2: MLM (CD-1), 1 μM; for microsomal CLint at 1 μM: mouse, pooled mouse liver microsomes, pH 7.4, MLM (CD-1)
Source text: MLM Stability Pooled MLM from CD-1 mice (BIOIVT M00501) were used.

[10] = Ca^2+ flux, agonist, read-out: 5-HT1A EC50

T2 sequence (P41595 whole entry): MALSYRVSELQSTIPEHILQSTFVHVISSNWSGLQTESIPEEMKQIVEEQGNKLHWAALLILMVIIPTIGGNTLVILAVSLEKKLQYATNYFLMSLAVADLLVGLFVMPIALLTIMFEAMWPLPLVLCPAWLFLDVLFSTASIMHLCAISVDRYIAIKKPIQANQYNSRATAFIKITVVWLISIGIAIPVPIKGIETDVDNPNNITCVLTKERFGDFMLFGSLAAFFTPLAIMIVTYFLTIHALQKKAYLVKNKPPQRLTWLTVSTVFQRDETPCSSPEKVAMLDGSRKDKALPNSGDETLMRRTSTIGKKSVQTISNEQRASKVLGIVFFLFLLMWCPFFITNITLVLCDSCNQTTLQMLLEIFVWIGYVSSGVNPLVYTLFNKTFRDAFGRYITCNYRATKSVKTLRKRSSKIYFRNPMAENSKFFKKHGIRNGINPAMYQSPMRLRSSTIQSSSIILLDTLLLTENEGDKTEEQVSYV
T1 sequence (P28223 whole entry): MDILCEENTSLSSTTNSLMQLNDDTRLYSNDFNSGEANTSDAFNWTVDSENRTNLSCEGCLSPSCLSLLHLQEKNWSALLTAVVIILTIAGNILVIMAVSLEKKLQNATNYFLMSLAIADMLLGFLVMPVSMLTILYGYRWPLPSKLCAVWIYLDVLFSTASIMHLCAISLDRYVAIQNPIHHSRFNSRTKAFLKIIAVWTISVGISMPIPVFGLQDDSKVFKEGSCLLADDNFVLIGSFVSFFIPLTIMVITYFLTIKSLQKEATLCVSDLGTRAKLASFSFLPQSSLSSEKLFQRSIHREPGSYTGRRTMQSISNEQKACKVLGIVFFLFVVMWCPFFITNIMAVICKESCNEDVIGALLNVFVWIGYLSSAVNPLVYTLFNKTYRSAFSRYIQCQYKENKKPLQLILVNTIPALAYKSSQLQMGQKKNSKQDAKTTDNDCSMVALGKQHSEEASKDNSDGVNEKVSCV

SMILES	t1/2 [1] [min]	microsomal CLint at 1 μM [1] [µL/min/mg]	pEC50 [2]	t1/2 [3] [min]	microsomal CLint at 1 μM [3] [µL/min/mg]	pEC50 [4]	pEC50 [5, 10]	pEC50 [6]	Ki [7] [nM]	pEC50 [8]	t1/2 [9] [min]	microsomal CLint at 1 μM [9] [µL/min/mg]	pEC50 [5]
CCN(CC)C(=O)[C@H]1C=C2c3cccc4[nH]cc(c34)C[C@H]2N(CCCF)C1 [Compound 2a, (6aR,9S)—N,N-diethyl-7-(3-fluoropropyl)-4,6,6a,7,8,9-hexahydroindolo[4,3-fg]quinoline-9-carboxamide]	17.018	81.4	6.77	9.673	143	5.66	6.27	7.30	115	6.59	1.776	780	–
CCCN1C[C@@H](C(=O)N[C@H](C)CC)C=C2c3cccc4[nH]cc(c34)C[C@H]21 [Compound 3a, (6aR,9S)—N—((R)-sec-butyl)-7-propyl-4,6,6a,7,8,9-hexahydroindolo[4,3-fg]quinoline-9-carboxamide]	2.2	63.4	6.84	1.4	960	5.74	6.81	7.27	27.6	6.88	0.6	2490	–
CC[C@@H](C)NC(=O)[C@H]1C=C2c3cccc4[nH]cc(c34)C[C@H]2N(CC)C1 [Compound 5a, (6aR,9S)—N—((R)-sec-butyl)-7-ethyl-4,6,6a,7,8,9-hexahydroindolo[4,3-fg]quinoline-9-carboxamide]	5.5	251	6.93	3.1	453	5.60	6.88	7.18	74.5	6.09	1.7	834	–
C=CCN1C[C@@H](C(=O)N[C@H](C)CC)C=C2c3cccc4[nH]cc(c34)C[C@H]21 [Compound 8a, (6aR,9S)-7-allyl-N—((R)-sec-butyl)-4,6,6a,7,8,9-hexahydroindolo[4,3-fg]quinoline-9-carboxamide]	3.4	409	6.40	1.7	835	5.45	5.81	5.93	> 1230	< 5.00	0.8	1660	–
CC[C@@H](C)NC(=O)[C@H]1C=C2c3cccc4[nH]cc(c34)C[C@H]2N(C)C1 [Int8a, (6aR,9S)—N—((R)-sec-butyl)-7-methyl-4,6,6a,7,8,9-hexahydroindolo[4,3-fg]quinoline-9-carboxamide]	11.1	125	6.75	3.5	394	< 5.00	6.79	7.71	84.3	6.80	1.6	843	–
CCC(CC)NC(=O)[C@H]1C=C2c3cccc4[nH]cc(c34)C[C@H]2N(C)C1 [Int14a, (6aR,9S)-7-methyl-N-(pentan-3-yl)-4,6,6a,7,8,9-hexahydroindolo[4,3-fg]quinoline-9-carboxamide]	3.35	414	6.33	1.8	770	< 5.00	–	7.45	56.2	6.29	1.699	816	5.81
